Test results from ChEMBL document CHEMBL4831542, “Design, Synthesis, and Biological Evaluation of Icaritin Derivatives as Novel Putative DEPTOR Inhibitors for Multiple Myeloma Treatment” (J Med Chem, 2021).
One block for each molecule: values may come before it. Calls of active or inactive are those of the source. No cut-off for these calls is given here.

Experiments:
RPMI-8226 [1] = test: Antiproliferative activity against human RPMI8226 cells assessed as inhibition of cell proliferation at 125 uM incubated for 72 hrs by CCK8 assay; format: functional
RPMI-8226 [2] = test: cells; settings: Homo sapiens, RPMI-8226, 72 h
Description: Antiproliferative activity against human RPMI-8226 cells assessed as inhibition of cell proliferation incubated for 72 hrs by CCK8 assay

RPMI-8226 [3] = test: Antiproliferative activity against human RPMI8226 cells assessed as inhibition of cell proliferation at 250 uM incubated for 72 hrs by CCK8 assay; format: functional
HL-60 = test: cells; settings: Homo sapiens, HL-60, 72 h
Description: Antiproliferative activity against human HL-60 cells assessed as inhibition of cell proliferation incubated for 72 hrs by CCK8 assay

RPMI-8226 [4] = test: Cell cycle arrest in human RPMI8226 cells assessed as accumulation of cells at G1 phase at 2 uM measured after 36 hrs by flow cytometry (reference value: 22.95%); format: functional
RPMI-8226 [5] = test: Antitumor activity against human RPMI8226 cells xenografted in BALB/c mouse assessed as tumor growth inhibition at 200 mg/kg, po once a day for 3 weeks relative to control; format: functional; settings: RPMI-8226, po, 504 h, read-out: TGI
NCI-H460 = test: cells; settings: Homo sapiens, NCI-H460, 72 h
Description: Antiproliferative activity against human NCI-H460 cells assessed as inhibition of cell proliferation incubated for 72 hrs by CCK8 assay

RPMI-8226 [6] = test: Antitumor activity against human RPMI8226 cells xenografted in BALB/c mouse assessed as tumor growth inhibition at 100 mg/kg, po once a day for 3 weeks relative to control; format: functional; settings: RPMI-8226, po, 504 h, read-out: TGI
RPMI-8226 [7] = test: Induction of apoptosis in human RPMI8226 cells assessed as late apoptotic cells at 2 uM measured after 36 hrs by Annexin V-FITC based flow cytometry (reference value: 0.81%); format: functional
MOLT-4 = test: cells; settings: Homo sapiens, MOLT-4, 72 h
Description: Antiproliferative activity against human MOLT-4 cells assessed as inhibition of cell proliferation incubated for 72 hrs by CCK8 assay

[8] = Toxicity in BALB/c mouse xenografted with human RPMI8226 cells assessed as change in body weight at 100 to 200 mg/kg, po once a day for 3 weeks; format: organism-based, RPMI-8226; settings: in vivo, 504 h, dose 100-200 mg/kg
DLD-1 = test: cells; settings: Homo sapiens, DLD-1, 72 h
Description: Antiproliferative activity against human DLD1 cells assessed as inhibition of cell proliferation incubated for 72 hrs by CCK8 assay

RPMI-8226 [9] = test: Induction of apoptosis in human RPMI8226 cells assessed as viable cells at 2 uM measured after 36 hrs by Annexin V-FITC based flow cytometry (reference value: 91.68%); format: functional; settings: read-out: Activity
U-266 = test: cells; settings: Homo sapiens, U-266, 72 h
Description: Antiproliferative activity against human U266 cells assessed as inhibition of cell proliferation incubated for 72 hrs by CCK8 assay

HepG2 = test: cells; settings: Homo sapiens, HepG2, 72 h
Description: Antiproliferative activity against human HepG2 cells assessed as inhibition of cell proliferation incubated for 72 hrs by CCK8 assay

RPMI-8226 [10] = test: Induction of apoptosis in human RPMI8226 cells assessed as viable cells at 1 uM measured after 36 hrs by Annexin V-FITC based flow cytometry (reference value: 91.68%); format: functional; settings: read-out: Activity
RPMI-8226 [11] = test: Cell cycle arrest in human RPMI8226 cells assessed as accumulation of cells at G2 phase at 2 uM measured after 36 hrs by flow cytometry (reference value: 27.03%); format: functional
RPMI-8226 [12] = test: Reduction in DEPTOR protein expression in human RPMI8226 cells incubated for 24 hrs by Western blot analysis; format: functional, cell-based; settings: dose 1-4 µM
RPMI-8226 [13] = test: Antitumor activity against human RPMI8226 cells xenografted in BALB/c mouse assessed as reduction in tumor weight at 100 to 200 mg/kg, po once a day for 3 weeks; format: functional, organism-based; settings: dose 100-200 mg/kg
RPMI-8226 [14] = test: Cell cycle arrest in human RPMI8226 cells assessed as accumulation of cells at S phase at 4 uM measured after 36 hrs by flow cytometry (reference value: 50.02%); format: functional
RPMI-8226 [15] = test: Induction of apoptosis in human RPMI8226 cells assessed as early apoptotic cells at 1 uM measured after 36 hrs by Annexin V-FITC based flow cytometry (reference value: 7.48%); format: functional
RPMI-8226 [16] = test: Induction of apoptosis in human RPMI8226 cells assessed as necrotic cells at 1 uM measured after 36 hrs by Annexin V-FITC based flow cytometry (reference value: 0.03%); format: functional
RPMI-8226 [17] = test: Cell cycle arrest in human RPMI8226 cells assessed as accumulation of cells at S phase at 1 uM measured after 36 hrs by flow cytometry (reference value: 50.02%); format: functional
RPMI-8226 [18] = test: Induction of apoptosis in human RPMI8226 cells assessed as viable cells at 4 uM measured after 36 hrs by Annexin V-FITC based flow cytometry (reference value: 91.68%); format: functional; settings: read-out: Activity
RPMI-8226 [19] = test: Induction of apoptosis in human RPMI8226 cells assessed as early apoptotic cells at 2 uM measured after 36 hrs by Annexin V-FITC based flow cytometry (reference value: 7.48%); format: functional
RPMI-8226 [20] = test: Induction of apoptosis in human RPMI8226 cells assessed as late apoptotic cells at 1 uM measured after 36 hrs by Annexin V-FITC based flow cytometry (reference value: 0.81%); format: functional
RPMI-8226 [21] = test: Induction of apoptosis in human RPMI8226 cells assessed as necrotic cells at 4 uM measured after 36 hrs by Annexin V-FITC based flow cytometry (reference value: 0.03%); format: functional
RPMI-8226 [22] = test: Cell cycle arrest in human RPMI8226 cells assessed as accumulation of cells at S phase at 2 uM measured after 36 hrs by flow cytometry (reference value: 50.02%); format: functional
SiHa = test: cells; settings: Homo sapiens, 72 h
Description: Antiproliferative activity against human SiHa cells assessed as inhibition of cell proliferation incubated for 72 hrs by CCK8 assay

U-251 = test: cells; settings: Homo sapiens, U-251, 72 h
Description: Antiproliferative activity against human U251 cells assessed as inhibition of cell proliferation incubated for 72 hrs by CCK8 assay

U2OS = test: cells; settings: Homo sapiens, 72 h
Description: Antiproliferative activity against human U2OS cells assessed as inhibition of cell proliferation incubated for 72 hrs by CCK8 assay

RPMI-8226 [23] = test: Cell cycle arrest in human RPMI8226 cells assessed as accumulation of cells at G2 phase at 4 uM measured after 36 hrs by flow cytometry (reference value: 27.03%); format: functional
MCF7 = test: cells; settings: Homo sapiens, MCF7, 72 h
Description: Antiproliferative activity against human MCF7 cells assessed as inhibition of cell proliferation incubated for 72 hrs by CCK8 assay

RPMI-8226 [24] = test: Cell cycle arrest in human RPMI8226 cells assessed as accumulation of cells at G1 phase at 1 uM measured after 36 hrs by flow cytometry (reference value: 22.95%); format: functional
RPMI-8226 [25] = test: Induction of apoptosis in human RPMI8226 cells assessed as early apoptotic cells at 4 uM measured after 36 hrs by Annexin V-FITC based flow cytometry (reference value: 7.48%); format: functional
RPMI-8226 [26] = test: Reduction in DEPTOR mRNA expression in human RPMI8226 cells by quantitative PCR analysis relative to control; format: functional, cell-based; settings: dose 1-4 µM
RPMI-8226 [27] = test: Cell cycle arrest in human RPMI8226 cells assessed as accumulation of cells at G2 phase at 1 uM measured after 36 hrs by flow cytometry (reference value: 27.03%); format: functional
RPMI-8226 [28] = test: Induction of apoptosis in human RPMI8226 cells assessed as late apoptotic cells at 4 uM measured after 36 hrs by Annexin V-FITC based flow cytometry (reference value: 0.81%); format: functional
MGC-803 = test: cells; settings: Homo sapiens, MGC-803, 72 h
Description: Antiproliferative activity against human MGC-803 cells assessed as inhibition of cell proliferation incubated for 72 hrs by CCK8 assay

RPMI-8226 [29] = test: Induction of apoptosis in human RPMI8226 cells assessed as necrotic cells at 2 uM measured after 36 hrs by Annexin V-FITC based flow cytometry (reference value: 0.03%); format: functional
RPMI-8226 [30] = test: Cell cycle arrest in human RPMI8226 cells assessed as accumulation of cells at G1 phase at 4 uM measured after 36 hrs by flow cytometry (reference value: 22.95%); format: functional

Structure (SMILES): CCN(CC)Cc1c(O)ccc2c(=O)c(O)c(-c3ccc(OC)cc3OC)oc12
- inhibition at 125 µM (RPMI-8226 [1]): 25%

- IC50 (RPMI-8226 [2]): 4.81 µM
Structure (SMILES): O=c1c(O)c(-c2ccc(Cl)c(Cl)c2)oc2c3c(ccc12)OCN(CC1CCOCC1)C3

- IC50 (RPMI-8226 [2]): 56.6 µM
Structure (SMILES): COc1ccc(-c2oc3c(CNCc4ccncc4)c(O)ccc3c(=O)c2O)c(OC)c1

Structure (SMILES): COc1ccc(-c2oc3c(CNC(Cc4ccccc4)C(=O)O)c(O)ccc3c(=O)c2O)c(OC)c1 (stereo not given)
- inhibition at 125 µM (RPMI-8226 [1]): 30%

Structure (SMILES): COc1ccc(-c2oc3c(CN4CCOCC4)c(O)ccc3c(=O)c2O)c(OC)c1
- inhibition at 125 µM (RPMI-8226 [1]): 25%

Structure (SMILES): COc1ccc(-c2oc3c4c(ccc3c(=O)c2O)OCN(NCc2ccc(Cl)c(Cl)c2)C4)c(OC)c1
- inhibition at 125 µM (RPMI-8226 [1]): 36%

- IC50 (RPMI-8226 [2]): 4.29 µM
Structure (SMILES): CN1CCC(N2COc3ccc4c(=O)c(O)c(-c5cccc(Cl)c5Cl)oc4c3C2)CC1

- IC50 (RPMI-8226 [2]): 29.8 µM
Structure (SMILES): O=c1c(O)c(-c2cccc(Cl)c2Cl)oc2c(CN3CCOCC3)c(O)ccc12

Structure (SMILES): COc1ccc(-c2oc3c(CN4CCCC4)c(O)ccc3c(=O)c2O)c(OC)c1
- inhibition at 250 µM (RPMI-8226 [3]): 53%

Structure (SMILES): COc1ccc(-c2oc3c(CNCC4CCOCC4)c(O)ccc3c(=O)c2O)c(OC)c1
- inhibition at 125 µM (RPMI-8226 [1]): 16%

- IC50 (RPMI-8226 [2]): 14.9 µM
Structure (SMILES): COc1ccc(-c2oc3c(CNCc4ccccc4)c(O)ccc3c(=O)c2O)c(OC)c1

- IC50 (RPMI-8226 [2]): 20.8 µM
Structure (SMILES): COc1ccc(-c2oc3c(CC=C(C)C)c(O)cc(O)c3c(=O)c2O)cc1 [ICARITIN]

- IC50 (RPMI-8226 [2]): 27.6 µM
Structure (SMILES): O=c1c(O)c(-c2ccncc2)oc2c3c(ccc12)OCN(Cc1ccc(Cl)c(Cl)c1)C3

- IC50 (RPMI-8226 [2]): 66.2 µM
Structure (SMILES): COc1ccc(-c2oc3c(CNCC(=O)O)c(O)ccc3c(=O)c2O)c(OC)c1

- IC50 (RPMI-8226 [2]): 5.9 µM
Structure (SMILES): O=c1c(O)c(-c2ccc(Cl)c(Cl)c2)oc2c3c(ccc12)OCN(Cc1ccncc1)C3

- IC50 (RPMI-8226 [2]): 60.4 µM
Structure (SMILES): CCN(CC)Cc1c(O)ccc2c(=O)c(O)c(-c3cccc(Cl)c3Cl)oc12

- IC50 (RPMI-8226 [2]): 42.8 µM
Structure (SMILES): O=c1c(O)c(-c2cccc(Cl)c2Cl)oc2c(CN3CCCC3)c(O)ccc12

Structure (SMILES): COc1ccc(-c2oc3c(CNCc4cccc(F)c4)c(O)ccc3c(=O)c2O)c(OC)c1
- inhibition at 125 µM (RPMI-8226 [1]): 19%

- IC50 (RPMI-8226 [2]): 4.03 µM
Structure (SMILES): O=c1c(O)c(-c2ccc(Cl)c(Cl)c2)oc2c(CN3CCOCC3)c(O)ccc12

- IC50 (RPMI-8226 [2]): 44.8 µM
Structure (SMILES): COc1ccc(-c2oc3c4c(ccc3c(=O)c2O)OCN(C2CCN(C)CC2)C4)c(OC)c1

- IC50 (HL-60): 6.6 µM
- IC50 (NCI-H460): > 10 µM
- IC50 (MOLT-4): 7.02 µM
- IC50 (DLD-1): 10 µM
- IC50 (U-266): 1.11 µM
- IC50 (HepG2): > 10 µM
- IC50 (SiHa): > 10 µM
- IC50 (U-251): > 10 µM
- IC50 (U2OS): > 10 µM
- IC50 (RPMI-8226 [2]): 1.09 µM
- IC50 (MCF7): 8.68 µM
- IC50 (MGC-803): > 10 µM
Structure (SMILES): O=c1c(O)c(-c2ccc(Cl)c(Cl)c2)oc2c3c(ccc12)OCN(Cc1cccc(F)c1)C3
- Activity (RPMI-8226 [4]): 18.17%
- inhibition in vivo at 200 mg/kg (RPMI-8226 [5]): 61.1%
- inhibition in vivo at 100 mg/kg (RPMI-8226 [6]): 45.4%
- Activity (RPMI-8226 [7]): 16.6%
- Activity [8]: Non-Toxic
- viability at 2 µM (RPMI-8226 [9]): 29.4%
- viability at 1 µM (RPMI-8226 [10]): 65%
- Activity (RPMI-8226 [11]): 26.33%
- Activity (RPMI-8226 [12]): Dose-Dependent Effect
- Activity (RPMI-8226 [13]): Active
- Activity (RPMI-8226 [14]): 62.51%
- Activity (RPMI-8226 [15]): 24.26%
- Activity (RPMI-8226 [16]): 1.55%
- Activity (RPMI-8226 [17]): 51.75%
- viability at 4 µM (RPMI-8226 [18]): 13.9%
- Activity (RPMI-8226 [19]): 53.44%
- Activity (RPMI-8226 [20]): 9.16%
- Activity (RPMI-8226 [21]): 0.28%
- Activity (RPMI-8226 [22]): 55.5%
- Activity (RPMI-8226 [23]): 15.01%
- Activity (RPMI-8226 [24]): 22.33%
- Activity (RPMI-8226 [25]): 60.59%
- Activity (RPMI-8226 [26]): Dose-Dependent Effect
- Activity (RPMI-8226 [27]): 25.91%
- Activity (RPMI-8226 [28]): 25.18%
- Activity (RPMI-8226 [29]): 0.54%
- Activity (RPMI-8226 [30]): 22.38%

Structure (SMILES): O=C(O)[C@@H]1CCCN1Cc1c(O)ccc2c(=O)c(O)c(-c3cccc(Cl)c3Cl)oc12
- inhibition at 125 µM (RPMI-8226 [1]): 49%
